Reference: ChEMBL document CHEMBL4507291 (2021)

Columns and labels:
[1] = molecular target: Leucine-rich repeat serine/threonine-protein kinase 2 (Homo sapiens, UniProt Q5S007); experiment: LRRK2 Biochemical Assay
[2] = molecular target: Mu-type opioid receptor (Homo sapiens) (UniProt P35372); conditions: Compound concentration 10.0 uM
[3] = molecular target: Histamine H3 receptor (Homo sapiens) (UniProt Q9Y5N1); conditions: Compound concentration 10.0 uM
[4] = molecular target: G protein-coupled receptor kinase 5 (Homo sapiens) (UniProt P34947); experiment: GRK5 Kinase screen; conditions: Compound concentration 1.0 uM
[5] = molecular target: Serine/threonine-protein kinase PAK 4 (Homo sapiens) (UniProt O96013); experiment: PAK4 Kinase screen; conditions: Compound concentration 1.0 uM
[6] = molecular target: Serine/threonine-protein kinase PAK 5 (Homo sapiens) (UniProt Q9P286); experiment: PAK7 (KIAA1264) Kinase screen; conditions: Compound concentration 1.0 uM
Serine/threonine-protein kinase PAK 5 (Homo sapiens), sequence (Q9P286 whole entry, looked up): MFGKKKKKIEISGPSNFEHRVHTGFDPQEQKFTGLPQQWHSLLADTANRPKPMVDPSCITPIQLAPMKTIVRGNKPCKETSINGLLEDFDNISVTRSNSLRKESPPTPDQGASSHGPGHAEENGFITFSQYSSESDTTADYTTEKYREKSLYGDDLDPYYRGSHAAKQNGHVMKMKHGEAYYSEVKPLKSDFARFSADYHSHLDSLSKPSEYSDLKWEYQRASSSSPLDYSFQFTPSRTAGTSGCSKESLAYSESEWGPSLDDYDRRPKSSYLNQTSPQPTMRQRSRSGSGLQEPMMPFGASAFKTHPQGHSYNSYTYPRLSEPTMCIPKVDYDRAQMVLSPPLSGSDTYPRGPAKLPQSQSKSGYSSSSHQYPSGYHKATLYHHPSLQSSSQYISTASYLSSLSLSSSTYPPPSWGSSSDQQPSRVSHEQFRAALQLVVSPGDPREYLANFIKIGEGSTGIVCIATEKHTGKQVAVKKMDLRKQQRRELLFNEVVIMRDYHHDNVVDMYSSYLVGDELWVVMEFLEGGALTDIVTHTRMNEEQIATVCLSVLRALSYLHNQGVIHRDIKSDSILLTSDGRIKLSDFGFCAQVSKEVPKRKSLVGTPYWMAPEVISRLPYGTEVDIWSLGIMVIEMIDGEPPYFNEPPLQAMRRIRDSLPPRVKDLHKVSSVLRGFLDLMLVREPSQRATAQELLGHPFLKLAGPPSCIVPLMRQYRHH

[7] = molecular target: Serine/threonine-protein kinase MARK2 (Homo sapiens) (UniProt Q7KZI7); experiment: MARK2 Kinase screen; conditions: Compound concentration 1.0 uM
[8] = molecular target: Testis-specific serine/threonine-protein kinase 2 (Homo sapiens) (UniProt Q96PF2); experiment: STK22B (TSSK2) Kinase screen; conditions: Compound concentration 1.0 uM
[9] = molecular target: Melanocortin receptor 4 (Homo sapiens) (UniProt P32245); experiment: Inhibition of Melanocortin MC4 at 10 µM in the Eurofins-Panlabs radioligand binding assay (Eurofins_assay_251350); design: ligand concentration 0.02 nM; conditions: Compound concentration 10.0 uM
Melanocortin receptor 4 (Homo sapiens), sequence (P32245 whole entry): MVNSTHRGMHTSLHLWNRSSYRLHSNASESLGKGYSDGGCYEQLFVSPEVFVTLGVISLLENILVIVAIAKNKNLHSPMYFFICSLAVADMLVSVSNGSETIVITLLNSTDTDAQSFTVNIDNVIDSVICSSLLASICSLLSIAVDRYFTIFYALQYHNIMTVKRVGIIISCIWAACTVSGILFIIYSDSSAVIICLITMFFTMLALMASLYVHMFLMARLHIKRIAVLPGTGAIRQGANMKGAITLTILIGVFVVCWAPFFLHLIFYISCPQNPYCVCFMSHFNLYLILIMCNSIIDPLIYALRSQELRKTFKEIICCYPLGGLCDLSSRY

[10] = molecular target: ATP-sensitive inward rectifier potassium channel 11 (Cricetulus griseus) (UniProt A0A3L7HHE1); experiment: Inhibition of Potassium Channel [KATP] at 10 µM in the Eurofins-Panlabs radioligand binding assay (Eurofins_assay_265600); conditions: Cricetinae; Compound concentration 10.0 uM
[11] = molecular target: Tyrosine-protein kinase Fes/Fps (Homo sapiens) (UniProt P07332); experiment: FES (FPS) Kinase screen; conditions: Compound concentration 1.0 uM
[12] = molecular target: Proto-oncogene tyrosine-protein kinase ROS (Homo sapiens) (UniProt P08922); experiment: ROS1 Kinase screen; conditions: Compound concentration 1.0 uM
Proto-oncogene tyrosine-protein kinase ROS (Homo sapiens), sequence (P08922 whole entry): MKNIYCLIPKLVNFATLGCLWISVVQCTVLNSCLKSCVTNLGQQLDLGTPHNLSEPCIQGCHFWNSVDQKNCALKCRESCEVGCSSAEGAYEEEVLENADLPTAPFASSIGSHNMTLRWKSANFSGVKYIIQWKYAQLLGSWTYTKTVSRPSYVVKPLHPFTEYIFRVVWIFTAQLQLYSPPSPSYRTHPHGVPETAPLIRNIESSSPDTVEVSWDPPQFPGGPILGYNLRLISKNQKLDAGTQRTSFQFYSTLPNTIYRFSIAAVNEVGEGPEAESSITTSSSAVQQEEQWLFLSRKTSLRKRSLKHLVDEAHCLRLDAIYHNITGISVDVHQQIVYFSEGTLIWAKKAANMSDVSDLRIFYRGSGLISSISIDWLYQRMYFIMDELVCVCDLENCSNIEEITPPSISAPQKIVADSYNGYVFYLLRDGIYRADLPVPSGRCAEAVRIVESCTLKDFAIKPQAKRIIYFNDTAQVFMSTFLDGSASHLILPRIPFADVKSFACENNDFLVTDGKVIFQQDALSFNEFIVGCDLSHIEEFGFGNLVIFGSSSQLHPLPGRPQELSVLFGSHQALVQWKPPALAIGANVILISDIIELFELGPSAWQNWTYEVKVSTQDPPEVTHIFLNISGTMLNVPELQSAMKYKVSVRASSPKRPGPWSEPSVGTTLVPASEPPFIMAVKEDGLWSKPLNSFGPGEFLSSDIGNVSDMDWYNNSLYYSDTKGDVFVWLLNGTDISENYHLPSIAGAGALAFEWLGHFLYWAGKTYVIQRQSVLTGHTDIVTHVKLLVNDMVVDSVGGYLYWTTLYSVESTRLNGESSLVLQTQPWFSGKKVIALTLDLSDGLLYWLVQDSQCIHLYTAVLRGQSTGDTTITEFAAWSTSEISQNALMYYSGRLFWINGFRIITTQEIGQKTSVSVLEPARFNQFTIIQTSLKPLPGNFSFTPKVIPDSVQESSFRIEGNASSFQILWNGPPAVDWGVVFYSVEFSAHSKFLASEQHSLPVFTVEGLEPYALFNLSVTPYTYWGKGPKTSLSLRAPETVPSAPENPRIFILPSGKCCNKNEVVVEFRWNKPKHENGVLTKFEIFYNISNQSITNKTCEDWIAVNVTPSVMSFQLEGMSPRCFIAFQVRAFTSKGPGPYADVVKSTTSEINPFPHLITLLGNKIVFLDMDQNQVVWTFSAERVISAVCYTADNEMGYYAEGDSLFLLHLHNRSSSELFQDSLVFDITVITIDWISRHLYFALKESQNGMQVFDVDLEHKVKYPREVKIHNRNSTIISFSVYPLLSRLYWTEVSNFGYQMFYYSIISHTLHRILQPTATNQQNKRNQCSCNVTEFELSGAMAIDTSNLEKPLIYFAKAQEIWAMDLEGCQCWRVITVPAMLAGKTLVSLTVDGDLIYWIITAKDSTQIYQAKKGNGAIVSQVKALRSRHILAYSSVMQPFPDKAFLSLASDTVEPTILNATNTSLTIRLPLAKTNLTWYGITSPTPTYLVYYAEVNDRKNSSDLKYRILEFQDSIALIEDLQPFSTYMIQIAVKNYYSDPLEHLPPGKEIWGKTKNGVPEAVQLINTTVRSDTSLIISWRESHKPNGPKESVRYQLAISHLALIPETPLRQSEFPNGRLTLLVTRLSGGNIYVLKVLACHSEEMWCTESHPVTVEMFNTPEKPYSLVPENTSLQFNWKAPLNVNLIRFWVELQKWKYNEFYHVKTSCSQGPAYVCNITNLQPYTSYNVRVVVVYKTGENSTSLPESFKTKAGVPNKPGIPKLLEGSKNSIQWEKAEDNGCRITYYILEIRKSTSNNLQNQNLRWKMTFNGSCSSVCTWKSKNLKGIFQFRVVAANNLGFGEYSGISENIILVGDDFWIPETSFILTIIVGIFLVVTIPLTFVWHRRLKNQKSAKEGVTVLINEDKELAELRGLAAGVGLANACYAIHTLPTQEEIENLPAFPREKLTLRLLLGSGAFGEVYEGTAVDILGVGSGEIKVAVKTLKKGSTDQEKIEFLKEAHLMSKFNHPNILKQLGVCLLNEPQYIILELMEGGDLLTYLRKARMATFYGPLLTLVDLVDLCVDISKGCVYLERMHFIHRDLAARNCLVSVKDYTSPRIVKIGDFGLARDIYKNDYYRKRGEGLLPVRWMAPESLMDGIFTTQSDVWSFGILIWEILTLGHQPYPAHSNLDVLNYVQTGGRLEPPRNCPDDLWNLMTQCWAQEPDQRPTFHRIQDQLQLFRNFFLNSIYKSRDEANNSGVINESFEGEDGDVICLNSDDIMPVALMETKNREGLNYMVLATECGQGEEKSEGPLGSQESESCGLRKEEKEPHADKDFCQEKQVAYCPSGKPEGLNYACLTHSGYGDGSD

[13] = molecular target: T1, Muscle, skeletal receptor tyrosine-protein kinase (Homo sapiens) (UniProt O15146); experiment: MUSK Kinase screen; conditions: Compound concentration 1.0 uM
T1 sequence (whole entry): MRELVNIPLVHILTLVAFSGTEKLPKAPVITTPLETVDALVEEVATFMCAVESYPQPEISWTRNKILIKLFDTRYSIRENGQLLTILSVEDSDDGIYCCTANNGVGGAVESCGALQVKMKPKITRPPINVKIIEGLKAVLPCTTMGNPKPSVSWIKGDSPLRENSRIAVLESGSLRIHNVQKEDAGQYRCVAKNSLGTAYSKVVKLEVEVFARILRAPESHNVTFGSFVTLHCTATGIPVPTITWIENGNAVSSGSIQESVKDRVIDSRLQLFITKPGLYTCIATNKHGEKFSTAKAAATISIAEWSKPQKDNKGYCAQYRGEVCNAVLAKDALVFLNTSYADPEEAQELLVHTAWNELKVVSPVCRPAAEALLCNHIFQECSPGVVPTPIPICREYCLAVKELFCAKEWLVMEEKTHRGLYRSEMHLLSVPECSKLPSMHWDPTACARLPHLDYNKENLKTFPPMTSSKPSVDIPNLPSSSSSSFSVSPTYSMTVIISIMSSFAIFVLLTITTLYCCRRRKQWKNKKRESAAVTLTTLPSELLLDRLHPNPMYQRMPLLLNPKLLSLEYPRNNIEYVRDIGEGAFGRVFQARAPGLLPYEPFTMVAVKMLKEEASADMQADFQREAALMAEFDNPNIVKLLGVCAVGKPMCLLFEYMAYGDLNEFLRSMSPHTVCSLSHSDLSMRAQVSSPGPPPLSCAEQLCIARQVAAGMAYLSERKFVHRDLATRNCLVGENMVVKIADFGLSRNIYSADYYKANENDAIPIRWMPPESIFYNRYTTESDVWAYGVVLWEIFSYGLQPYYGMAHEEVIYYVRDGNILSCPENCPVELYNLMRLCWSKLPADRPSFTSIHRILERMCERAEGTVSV

[14] = molecular target: High affinity choline transporter 1 (Homo sapiens) (UniProt Q9GZV3); experiment: Transporter, Choline Eurofins-Panlabs radioligand binding assay; design: ligand concentration 0.75 nM; conditions: Rattus norvegicus; Compound concentration 10.0 uM
High affinity choline transporter 1 (Homo sapiens), sequence (Q9GZV3 whole entry): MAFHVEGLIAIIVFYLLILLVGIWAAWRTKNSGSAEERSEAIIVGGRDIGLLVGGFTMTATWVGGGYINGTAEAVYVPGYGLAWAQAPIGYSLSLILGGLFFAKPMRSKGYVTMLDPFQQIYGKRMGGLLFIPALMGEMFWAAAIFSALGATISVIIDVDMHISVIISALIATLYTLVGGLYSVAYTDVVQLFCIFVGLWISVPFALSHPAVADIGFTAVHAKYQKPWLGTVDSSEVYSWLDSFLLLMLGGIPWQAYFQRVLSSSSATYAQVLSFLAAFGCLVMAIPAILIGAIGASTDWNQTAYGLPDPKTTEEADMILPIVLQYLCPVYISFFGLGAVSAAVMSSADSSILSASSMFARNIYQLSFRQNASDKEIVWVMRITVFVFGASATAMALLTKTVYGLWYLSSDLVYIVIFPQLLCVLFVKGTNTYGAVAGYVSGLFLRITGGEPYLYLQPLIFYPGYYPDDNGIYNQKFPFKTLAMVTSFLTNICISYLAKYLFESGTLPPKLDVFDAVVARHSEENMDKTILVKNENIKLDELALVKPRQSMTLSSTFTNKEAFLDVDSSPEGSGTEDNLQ

[15] = molecular target: Tyrosine-protein kinase ABL1 (Homo sapiens) (UniProt P00519); experiment: ABL1 Kinase screen; conditions: Compound concentration 1.0 uM
Tyrosine-protein kinase ABL1 (Homo sapiens), sequence (P00519 whole entry): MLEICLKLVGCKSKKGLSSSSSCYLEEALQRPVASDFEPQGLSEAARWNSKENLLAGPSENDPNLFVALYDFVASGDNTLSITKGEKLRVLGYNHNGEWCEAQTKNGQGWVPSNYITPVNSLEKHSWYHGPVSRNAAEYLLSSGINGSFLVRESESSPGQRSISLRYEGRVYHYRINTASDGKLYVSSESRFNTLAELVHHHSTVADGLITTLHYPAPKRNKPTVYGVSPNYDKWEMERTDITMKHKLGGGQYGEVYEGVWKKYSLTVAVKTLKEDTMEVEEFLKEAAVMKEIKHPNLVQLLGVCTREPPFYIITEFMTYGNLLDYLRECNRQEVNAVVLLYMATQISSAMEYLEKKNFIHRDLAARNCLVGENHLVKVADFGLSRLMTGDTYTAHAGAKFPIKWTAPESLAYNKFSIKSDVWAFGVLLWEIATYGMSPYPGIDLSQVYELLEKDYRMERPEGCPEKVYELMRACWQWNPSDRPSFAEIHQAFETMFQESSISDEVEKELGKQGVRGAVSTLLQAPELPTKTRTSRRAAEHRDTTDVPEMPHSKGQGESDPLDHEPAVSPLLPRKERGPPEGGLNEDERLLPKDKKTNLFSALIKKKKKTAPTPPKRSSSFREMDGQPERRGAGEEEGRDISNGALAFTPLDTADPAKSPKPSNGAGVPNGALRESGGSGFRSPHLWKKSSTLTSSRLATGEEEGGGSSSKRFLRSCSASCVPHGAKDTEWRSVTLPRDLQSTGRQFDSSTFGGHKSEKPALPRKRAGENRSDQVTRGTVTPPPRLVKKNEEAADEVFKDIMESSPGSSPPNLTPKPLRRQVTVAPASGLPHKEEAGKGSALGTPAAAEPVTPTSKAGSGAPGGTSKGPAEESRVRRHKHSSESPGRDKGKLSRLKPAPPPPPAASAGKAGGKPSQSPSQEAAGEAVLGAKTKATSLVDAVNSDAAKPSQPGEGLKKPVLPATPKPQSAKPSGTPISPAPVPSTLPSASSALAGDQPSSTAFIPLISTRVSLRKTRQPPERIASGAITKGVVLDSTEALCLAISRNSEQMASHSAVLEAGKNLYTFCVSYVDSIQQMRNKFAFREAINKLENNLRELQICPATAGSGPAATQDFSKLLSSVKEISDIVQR

[16] = tested on: Platelet-derived growth factor receptor alpha (Homo sapiens), P16234 [V561D]; experiment: PDGFRA V561D Kinase screen; conditions: Compound concentration 1.0 uM
[17] = molecular target: Proto-oncogene tyrosine-protein kinase Src (Homo sapiens) (UniProt P12931); experiment: SRC N1 Kinase screen; conditions: Compound concentration 1.0 uM
[18] = molecular target: T2, MAP kinase-activated protein kinase 5 (Homo sapiens) (UniProt Q8IW41); experiment: MAPKAPK5 (PRAK) Kinase screen; conditions: Compound concentration 1.0 uM
T2 sequence (whole entry): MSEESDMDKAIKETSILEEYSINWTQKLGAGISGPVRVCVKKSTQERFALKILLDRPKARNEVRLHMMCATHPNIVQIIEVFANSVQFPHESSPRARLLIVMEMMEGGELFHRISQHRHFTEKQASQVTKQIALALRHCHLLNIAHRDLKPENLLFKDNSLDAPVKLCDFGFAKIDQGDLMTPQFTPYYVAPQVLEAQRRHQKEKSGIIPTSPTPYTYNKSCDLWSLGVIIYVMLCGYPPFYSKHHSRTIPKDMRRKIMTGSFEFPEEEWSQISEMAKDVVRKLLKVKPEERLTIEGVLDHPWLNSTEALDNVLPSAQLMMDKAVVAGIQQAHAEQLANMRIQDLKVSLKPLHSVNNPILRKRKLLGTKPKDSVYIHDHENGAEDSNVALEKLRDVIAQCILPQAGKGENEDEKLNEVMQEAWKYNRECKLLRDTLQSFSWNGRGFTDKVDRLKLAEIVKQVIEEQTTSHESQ

[19] = molecular target: T3, Homeodomain-interacting protein kinase 4 (Homo sapiens) (UniProt Q8NE63); experiment: HIPK4 Kinase screen; conditions: Compound concentration 1.0 uM
T3 sequence (whole entry): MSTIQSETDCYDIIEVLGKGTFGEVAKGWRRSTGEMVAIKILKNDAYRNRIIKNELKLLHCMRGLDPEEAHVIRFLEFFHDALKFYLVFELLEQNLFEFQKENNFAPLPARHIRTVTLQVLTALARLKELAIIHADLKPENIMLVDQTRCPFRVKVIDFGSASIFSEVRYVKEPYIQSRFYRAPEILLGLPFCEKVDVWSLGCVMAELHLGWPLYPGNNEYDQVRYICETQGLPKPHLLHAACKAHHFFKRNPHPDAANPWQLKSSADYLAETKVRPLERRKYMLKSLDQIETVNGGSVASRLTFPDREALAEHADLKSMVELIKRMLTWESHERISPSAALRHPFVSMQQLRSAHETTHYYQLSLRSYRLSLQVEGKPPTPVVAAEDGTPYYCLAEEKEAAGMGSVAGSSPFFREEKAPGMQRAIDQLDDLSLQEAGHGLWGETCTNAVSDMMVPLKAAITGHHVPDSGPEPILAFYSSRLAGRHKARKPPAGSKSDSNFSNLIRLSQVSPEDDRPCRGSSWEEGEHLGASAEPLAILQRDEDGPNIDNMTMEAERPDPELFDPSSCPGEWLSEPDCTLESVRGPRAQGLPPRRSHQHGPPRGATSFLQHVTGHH

Row | SMILES | IC50 [1] | inhibition [2] [%] | inhibition [3] [%] | inhibition [4] [%] | inhibition [5] [%] | inhibition [6] [%] | inhibition [7] [%] | inhibition [8] [%] | inhibition [9] [%] | inhibition [10] [%] | inhibition [11] [%] | inhibition [12] [%] | inhibition [13] [%] | inhibition [14] [%] | inhibition [15] [%] | inhibition [16] [%] | inhibition [17] [%] | inhibition [18] [%] | inhibition [19] [%]
1 | C[C@@H]1CN(c2cc(-c3nn(C)c4ccc(OC5(C)CC5)cc34)ncn2)C[C@H](C)O1 [MLi-2-NC] | 6.48 µM (not active) | 13.2 | -6.25 |  |  |  |  |  |  |  |  |  |  |  |  |  |  |  | 
2 | C[C@@H]1CN(c2cc(-c3n[nH]c4ccc(OC5(C)CC5)cc34)ncn2)C[C@H](C)O1 [MLi-2] |  |  |  | 0.0771 | -7.34 | 5.96 | 7.83 | 10.2 | -6 | 18 | 6.03 | 2.52 | -0.0337 | 18 | 1.09 | 8.06 | 5.78 | 14.2 | 6.2
